{"source": "patent US20110300566A1", "about": "“METHODS FOR SCREENING FOR HISTONE DEACETYLASE ACTIVITY AND FOR IDENTIFYING HISTONE DEACETYLASE INHIBITORS” (priority 2002, published 2011)", "molecules": {"B1": {"name": "Hos3 (Saccharomyces cerevisiae S288C) (protein)", "chain": "MSSKHSDPLERFYKQFQAFVQNNPNVISAARAAAQIPESAKAVVVLSPYSLQHVFPREWVTKSYRKTIVERPERLLASSMGISAAITMYPSLFTLKSSHQRKGSLMAPHVLKVHGSSWPAELIELCQMADAKLLKGEIEVPDTWNSGDIYLSSKTIKALQGTIGAIETGVDSIFKGPSAEHISNRAFVAIRPPGHHCHYGTPSGFCLLNNAHVAIEYAYDTYNVTHVVVLDFDLHHGDGTQDICWKRAGFKPEEEPEDSSYDDFGKKFAEFPKVGYFSMHDINSFPTESGFATKENIKNASTCIMNSHDLNIWNIHLSKWTTEEEFNVLYRTKYRTLFAKADEFFRSAKLEMNQQGRPFKGLVVISAGFDASEFEQTSMQRHSVNVPTSFYTTFTKDALKLAQMHCHGKVLSLMEGGYSDKAICSGVFAHLIGLQNQDWVKEWGSEQVVKEIVRGCKPAWKPYKTKRAKDVIRIWAEEVIRLGRAMIPEFDDIIFKDAVNSAPSNSLLKATVEPASTSTIAQRIIRSHRSNASPEKELHENKPRSTEKQEQREIRSDTKVKQLSSNNRAAETQIPFLQQEFSSEDEDEEYVYDEELNKTFNRTVEDITIDDISRHLETLEIEKKGDEDSDHELKEKNWKNSHQRRLQGNGMYKIPSNTKPHRIRQPQNANTPTYDDSDISMISHVSRKHTTRSGGRW", "notes": "made in house; host or cells: E. coli BL21(DE3)"}}, "key": {"[1]": {"test": "Solubility of substrate in assay buffer", "format": "physicochemical", "conditions": "HDAC assay buffer"}, "[2]": {"molecular_target": "T1, Hos3 (Saccharomyces cerevisiae, UniProt Q02959)", "T1 construct": "made in house; host or cells: E. coli BL21(DE3)", "T1 sequence (Q02959 1-697)": "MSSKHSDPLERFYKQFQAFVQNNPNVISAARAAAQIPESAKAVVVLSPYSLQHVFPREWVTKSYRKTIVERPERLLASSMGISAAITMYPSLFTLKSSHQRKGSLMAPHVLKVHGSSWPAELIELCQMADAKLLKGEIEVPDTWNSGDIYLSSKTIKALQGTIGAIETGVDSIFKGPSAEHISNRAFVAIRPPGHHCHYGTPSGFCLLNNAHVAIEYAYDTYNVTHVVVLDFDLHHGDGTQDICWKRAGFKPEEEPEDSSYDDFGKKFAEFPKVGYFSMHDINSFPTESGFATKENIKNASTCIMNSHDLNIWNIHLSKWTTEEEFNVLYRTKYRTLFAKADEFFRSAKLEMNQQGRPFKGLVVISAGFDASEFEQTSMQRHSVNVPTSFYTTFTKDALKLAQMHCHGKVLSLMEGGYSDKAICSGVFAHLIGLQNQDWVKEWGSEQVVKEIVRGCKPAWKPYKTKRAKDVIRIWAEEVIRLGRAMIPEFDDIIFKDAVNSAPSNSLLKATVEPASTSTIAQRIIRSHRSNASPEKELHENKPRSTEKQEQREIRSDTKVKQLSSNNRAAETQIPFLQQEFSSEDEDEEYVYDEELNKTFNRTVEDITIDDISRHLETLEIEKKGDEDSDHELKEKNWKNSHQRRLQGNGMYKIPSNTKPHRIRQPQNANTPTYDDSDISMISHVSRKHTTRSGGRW", "test": "HDAC inhibitor studies (competition with 7AC substrate, fluorescent assay)", "format": "biochemical", "conditions": "for IC50: Hos3 (150 nM) with 7AC (75 mM) substrate; for Mode of Inhibition: Hos3, 7AC substrate, double-reciprocal plots, IC50 vs substrate concentration for TSA", "experimental": "Characterization of the Mechanism of Inhibition. Inhibitor studies were conducted using the 7AC substrate and the fluorescent histone deacetylase activity assay.\nCompetition experiments were performed in HDAC assay buffer (20 mM Tris, pH 8.0, 500 mM NaCl, 1 mM MnCl2) to a final reaction volume of 1 ml. Trichostatin A was solubilized in 100% DMSO, yielding a final concentration of 2% DMSO in this reaction. […] The final DMSO concentration in these reactions was 1%. 7AC substrate and inhibitor were added in the appropriate concentrations to the assay buffer and the basal rate of hydrolysis was recorded. Hos3 enzyme (150 nM) was added after 90 seconds and the reaction was allowed to proceed for 600 seconds. Initial rate data was transformed into appropriate rates and dose response plots were generated. IC50 values were calculated using the program Kaleidagraph with equation 4: […]\nwhere vi is the initial velocity in the presence of inhibitor, vo, is the initial velocity in the absence of inhibitor, and [I] is the concentration of inhibitor. Ki values were determined by Dixon plots […]. The modes of inhibition were determined by double-reciprocal or Lineweaver-Burk plots, where 1/v is plotted as a function of 1/[S], using the programs of Cleland."}, "[3]": {"molecular_target": "T1, Hos3", "test": "Histone deacetylase fluorescent activity assay (7AC hydrolysis)", "format": "biochemical", "conditions": "7AC as substrate; 150 nM Hos3; pH 8.0", "experimental": "(§1) As depicted in FIG. 1, the inventive fluorescence-based HDAC assay monitors the hydrolysis of 7AC to 7-hydroxycoumarin, or of ACC to 7-hydroxycoumarin-3-carboxylic acid, at λex=332 nm and λem=447 nm. […] Utilization rations for each enzyme with the 7AC substrate were calculated. For Hos3, the utilization ratio was 1.9122×10^−4 s^−1, and 1274.8 M^−1 s^−1 when normalized by enzyme concentration. For HDLP, the utilization ratio was 2.0375×10^−4 s^−1, and 612.8 M^−1 s^−1 when normalized by enzyme concentration. For HDAC2, the utilization ratio was 1.2526×10^−5 s^−1, and 35.8 M^−1 s^−1 when normalized by enzyme concentration, as shown in Table 1.\n(§2) HDAC activity assays were performed in HDAC assay buffer (20 mM Tris, pH 8.0, 500 mM NaCl, 1 mM MnCl2) to a final reaction volume of 1 ml in quartz spectrophotometer cuvettes. Fluorescence spectrophotometry was used to monitor ACC or 7AC hydrolysis (λex=332 nm, λem=447 nm). Internal fluorescence intensity calibrations were obtained using quinine sulfate as known in the art. ACC or 7AC substrate (solubilized in 100% DMSO) was added in the appropriate concentrations to the assay buffer (1% final concentration of DMSO) and the basal rate of hydrolysis was recorded. After 90 seconds, 150 nM Hos3 enzyme was added and the reaction was allowed to proceed for 600 seconds. […] Utilization ratios for Hos3 were calculated based on the adjusted initial rates. […]"}, "[4]": {"test": "Background (basal) rate of substrate hydrolysis in assay buffer", "format": "physicochemical", "conditions": "assay buffer at pH 8.0; compared with ACC", "experimental": "as §1, §2"}, "[5]": {"tested_on": "HDLP", "test": "Histone deacetylase fluorescent activity assay (7AC hydrolysis)", "format": "biochemical, Aquifex aeolicus", "conditions": "7AC as substrate; 330 nM GST-HDLP; pH 8.0", "experimental": "as §1, §2"}, "[6]": {"molecular_target": "T2, HDAC2 (Homo sapiens, UniProt Q92769)", "T2 construct": "made in house; host or cells: E. coli BL21(DE3)", "T2 sequence (Q92769 whole entry)": "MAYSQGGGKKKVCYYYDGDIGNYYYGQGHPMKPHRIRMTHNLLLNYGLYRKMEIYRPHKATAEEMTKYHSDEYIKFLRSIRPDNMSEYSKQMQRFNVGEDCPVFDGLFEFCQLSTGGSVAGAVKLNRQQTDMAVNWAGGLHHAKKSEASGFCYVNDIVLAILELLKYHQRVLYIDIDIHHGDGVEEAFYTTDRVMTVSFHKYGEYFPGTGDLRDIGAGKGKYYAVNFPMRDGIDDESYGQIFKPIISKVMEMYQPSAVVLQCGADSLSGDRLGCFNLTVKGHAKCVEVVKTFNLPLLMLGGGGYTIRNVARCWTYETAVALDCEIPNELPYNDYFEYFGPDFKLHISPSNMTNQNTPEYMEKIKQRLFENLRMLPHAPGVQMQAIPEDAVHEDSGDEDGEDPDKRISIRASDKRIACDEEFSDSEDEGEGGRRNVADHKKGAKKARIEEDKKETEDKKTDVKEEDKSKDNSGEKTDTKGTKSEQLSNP", "test": "Histone deacetylase fluorescent activity assay (7AC hydrolysis)", "format": "biochemical", "conditions": "7AC as substrate; 350 nM GST-HDAC2; pH 8.0", "experimental": "as §1, §2"}, "[7]": {"molecular_target": "T1, Hos3", "test": "HDAC inhibitor studies (competition with 7AC substrate, fluorescent assay)", "format": "biochemical", "conditions": "Hos3 (150 nM), slope of Henderson plot"}, "[8]": {"substrate": "CC(=O)Oc1ccc([N+](=O)[O-])cc1", "test": "UV-based histone deacetylase activity assay", "format": "biochemical, Saccharomyces cerevisiae", "conditions": "other: MBP-Hos3; UV at 410 nm", "source_text": "The substrates 7AC and ACC can also be effectively utilized in a UV assay. The substrate absorbs from 250-340 nm, while the product has a maximal absorbance at 375 nm. So substrate hydrolysis/product formation can be monitored by the increase in absorbance at 375 nm. […] Para-nitrophenylacetate can also be used to assay HDAC activity. Upon acetate hydrolysis, the para-nitrophenylacetate liberates the colored p-nitrophenol chromophore; this reaction can be monitored on the UV at 410 nm.\nHDAC activity assays were performed in HDAC Assay Buffer to a final reaction volume of 1 ml in quartz cuvettes. UV/Vis spectrophotometer was used to monitor the rate of 7AC hydrolysis. The 7AC substrate absorbs from 250-340 nm, while the product, 7-hydroxycoumarin, has a maximal absorbance at 375 nm. Reactions were initiated with substrate and allowed to proceed for 300 seconds, while monitoring the increase in absorbance at 375 nm. Para-nitrophenylacetate was also used to assay HDAC activity. Upon acetate hydrolysis, the para-nitrophenylacetate liberated the colored p-nitrophenol chromophore; this reaction was monitored on the UV at 410 nm. Initial rates and utilization ratios were calculated as described above."}}, "note": "Entries after “also recorded” stand apart in the source; their conditions may differ.", "data": [{"molecule": "CC(=O)Oc1ccc([N+](=O)[O-])cc1", "note": "[Para-nitrophenylacetate, 4-nitrophenylacetate]", "values": [{"measurement": "Solubility limitation", "setting": "[1]", "result": "subject to solubility limitations that prevent complete saturation of the enzyme"}]}, {"molecule": "CCCC(=O)[O-].[Na+]", "note": "[NaB, sodium butyrate]", "values": [{"measurement": "IC50", "setting": "[2]", "result": 13.4, "unit": "mM"}, {"measurement": "Ki", "setting": "[2]; Hos3 (150 nM), 7AC substrate, Dixon plot", "result": 12, "unit": "mM"}, {"measurement": "Mode of Inhibition", "setting": "[2]", "result": "Mixed-"}, {"measurement": "Mode of Inhibition", "setting": "[2]; listed as Sodium butyrate", "result": "mixed-type inhibition"}, {"measurement": "Mode of Inhibition", "setting": "[2]; listed as sodium butyrate", "result": "mixed-competitive inhibitor"}]}, {"molecule": "CC(=O)Oc1ccc2ccc(=O)oc2c1", "note": "[7AC, 7-Acetoxycoumarin]", "values": [{"measurement": "V/K (utilization ratio)", "setting": "[3]", "result": 0.00019122, "unit": "s⁻¹"}, {"measurement": "V/[Et]/K (utilization ratio normalized by enzyme concentration)", "setting": "[3]", "result": 1274.8, "unit": "M⁻¹ s⁻¹"}, {"measurement": "Background rate of hydrolysis", "setting": "[4]", "result": "lower background rate of hydrolysis"}, {"measurement": "V/K (utilization ratio)", "setting": "[5]", "result": 0.00020375, "unit": "s⁻¹"}, {"measurement": "V/[Et]/K (utilization ratio normalized by enzyme concentration)", "setting": "[5]", "result": 612.8, "unit": "M⁻¹ s⁻¹"}, {"measurement": "V/K (utilization ratio)", "setting": "[6]", "result": "1.2526e-05", "unit": "s⁻¹"}, {"measurement": "V/[Et]/K (utilization ratio normalized by enzyme concentration)", "setting": "[6]", "result": 35.8, "unit": "M⁻¹ s⁻¹"}, {"measurement": "solubility", "setting": "[1]; aqueous buffer", "result": "≤ 1", "unit": "mM"}]}, {"molecule": "CC(/C=C/C(=O)NO)=C\\[C@@H](C)C(=O)c1ccc(N(C)C)cc1", "note": "[TSA, Trichostatin A]", "values": [{"measurement": "Ki", "setting": "[7]", "result": 81, "unit": "nM"}, {"measurement": "IC50", "setting": "[2]", "result": 0.000127, "unit": "mM"}, {"measurement": "Mode of Inhibition", "setting": "[2]", "result": "Tight-binding"}, {"measurement": "Mode of Inhibition", "setting": "[2]; listed as Trichostatin A", "result": "tight-binding competitive inhibitor; also recorded: tight-binding, competitive inhibitor; also recorded: tight binding competitive inhibition"}]}, {"molecule": "B1", "values": [{"measurement": "Km", "setting": "[8]", "result": 8.3, "unit": "mM"}]}]}
